How the values were obtained:
HIV-1 (H9IIIB strain) = experiment: Antiviral Assays in Cell Culture (Spread), acute infection assay; assay type: cell-based; details: Human immunodeficiency virus 1, T-lymphoid, read-out: Viking 50% (nM)
Source text: Antiviral Assays in Cell Culture (“Spread”)
Acute Infection Assay (“Spread”) data were generated using HIV-1 (H9IIIB strain) infection of MT-4 human T-lymphoid cells in 10% FBS, and according to the methods disclosed by J. P. Vacca et al, “L-735,524: An orally bioavailable human immunodeficiency virus type 1 protease inhibitor,” Proc. Natl. Acad. Sci. USA, Vol. 91, pp. 4096-4100 (April 1994).

wildtype HIV-1 protease = target: T1, wildtype HIV-1 protease (Human immunodeficiency virus type 1 group M subtype B, UniProt P04585); experiment: Assay for Inhibition of Microbial Expressed HIV Protease (Pepcleav); assay type: biochemical
T1 construct: preincubated with the HIV-1 protease (wild type) enzyme in assay buffer; made in house; host or cells: Escherichia coli
Method in brief: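 E. coli-expressed wildtype protease (20 pM final) preincubated with inhibitor 30 min at room temperature in 50 mM sodium acetate pH 5.5, 100 mM NaCl, 0.1% BSA. Reaction with 400 μM peptide substrate ran 1 h at 30° C. Inhibition derived from LC-MS/MS (MRM) product peak area.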

SMILES	EC50 (HIV-1 (H9IIIB strain)) [nM]	IC50 (wildtype HIV-1 protease) [nM]
O=C(C[C@@H](c1ccc(F)cc1)c1cc(F)cc(F)c1)Nc1cncc(F)c1CC[C@@H]1CN[C@H](c2nc3ccc(Cl)cc3[nH]2)CO1 [Example 65, (3S)—N-(4-{2-[(2R,5R)-5-(6-chloro-1H-benzimidazol-2-yl)morpholin-2-yl]ethyl}-5-fluoropyridin-3-yl)-3-(3,5-difluorophenyl)-3-(4-fluorophenyl)propanamide]	13	–
Cc1cc2nc([C@@H]3CO[C@H](CCc4c(F)cncc4NC(=O)C[C@H](c4cccc(F)c4)c4ccc(Cl)c(F)c4)CN3)[nH]c2cc1C [Example 67, (3R)-3-(4-chloro-3-fluorophenyl)-N-(4-{2-[(2R,5R)-5-(5,6-dimethyl-1H-benzimidazol-2-yl)morpholin-2-yl]ethyl}-5-fluoropyridin-3-yl)-3-(3-fluorophenyl)propanamide]	23	–
Cc1ccc2nc([C@@H]3CO[C@H](CCc4c(F)cncc4NC(=O)C[C@@H](c4ccc(F)cc4)c4cc(F)cc(F)c4)CN3)[nH]c2c1 [Example 66, (3S)-3-(3,5-difluorophenyl)-N-(5-fluoro-4-{2-[(2R,5R)-5-(6-methyl-1H-benzimidazol-2-yl)morpholin-2-yl]ethyl}pyridin-3-yl)-3-(4-fluorophenyl)propanamide]	22	–
Cc1cc2nc([C@@H]3CO[C@H](CCc4c(F)cncc4NC(=O)C[C@@H](c4ccc(F)cc4)c4ccncc4F)CN3)[nH]c2cc1C [Example 63, (3S)—N-(4-{2-[(2R,5R)-5-(5,6-dimethyl-1H-benzimidazol-2-yl)morpholin-2-yl]ethyl}-5-fluoropyridin-3-yl)-3-(4-fluorophenyl)-3-(3-fluoropyridin-4-yl)propanamide]	63	–
Cc1cc2nc([C@@H]3CO[C@H](CCc4c(F)cncc4NC(=O)C[C@H](c4cncc(F)c4)c4ccc(Cl)c(F)c4)CN3)[nH]c2cc1C [Example 68, (3S)-3-(4-chloro-3-fluorophenyl)-N-(4-{2-[(2R,5R)-5-(5,6-dimethyl-1H-benzimidazol-2-yl)morpholin-2-yl]ethyl}-5-fluoropyridin-3-yl)-3-(5-fluoropyridin-3-yl)propanamide]	52	–
Cc1cc2nc([C@@H]3CO[C@H](CCc4c(F)cncc4NC(=O)C[C@@H](c4ccc(F)cc4)c4cc(F)cc(F)c4)CN3)[nH]c2cc1C [Example 64, (3S)-3-(3,5-difluorophenyl)-N-(4-{2-[(2R,5R)-5-(5,6-dimethyl-1H-benzimidazol-2-yl)morpholin-2-yl]ethyl}-5-fluoropyridin-3-yl)-3-(4-fluorophenyl)propanamide]	16	–
Cc1cc2nc([C@@H]3CO[C@H](CCc4c(F)cncc4NC(=O)C[C@H](c4ccccc4)c4ccc(F)cc4)CN3)[nH]c2cc1C [Example 69, (3R)—N-(4-{2-[(2R,5R)-5-(5,6-dimethyl-1H-benzimidazol-2-yl)morpholin-2-yl]ethyl}-5-fluoropyridin-3-yl)-3-(4-fluorophenyl)-3-phenylpropanamide]	80	0.01
COC(=O)N[C@H](C(=O)Nc1ccccc1CC[C@@H]1CN[C@H](c2nc3ccccc3n2C)CO1)C(c1ccccc1)c1ccccc1 [Example 2, methyl N-[(1S)-1-benzhydryl-2-[[2-[2-[(2R,5R)-5-(1-methylbenzimidazol-2-yl)morpholin-2-yl]ethyl]phenyl]amino]-2-oxo-ethyl]carbamate]	–	7.96
O=C(CC(c1ccccc1)c1ccccc1)Nc1cccc(F)c1CC[C@@H]1CN[C@H](c2nc3ccccc3[nH]2)CO1 [Example 100, N-(2-{2-[(2R,5R)-5-(1H-benzimidazol-2-yl)morpholin-2-yl]ethyl}-3-fluorophenyl)-3,3-diphenylpropanamide]	–	0.65
COC(=O)N[C@H](C(=O)Nc1ccccc1CC[C@@H]1CN[C@H](c2cc3cc(OC)ccc3[nH]2)CO1)C(c1ccccc1)c1ccccc1 [Example 56, Nα-(methoxycarbonyl)-N-(2-{2-[(2R,5R)-5-(5-methoxy-1H-indol-2-yl)morpholin-2-yl]ethyl}phenyl)-β-phenyl-L-phenylalaninamide]	–	98.3
COC(=O)N[C@H](C(=O)Nc1ccccc1CC[C@@H]1CN[C@H](c2csc(Cc3ccccc3)n2)CO1)C(c1ccccc1)c1ccccc1 [Example 84]	–	150
COC(=O)N[C@H](C(=O)Nc1ccccc1CC[C@@H]1CN[C@H](c2nc3cc(C)c(C)cc3[nH]2)CO1)C(c1ccccc1)c1ccccc1 [Example 9, methyl N-[(1S)-1-benzhydryl-2-[[2-[2-[(2R,5R)-5-(5,6-dimethyl-1H-benzimidazol-2-yl)morpholin-2-yl]ethyl]phenyl]amino]-2-oxo-ethyl]carbamate]	–	0.0516
COC(=O)N[C@H](C(=O)Nc1ccccc1CC[C@@H]1CN[C@H](c2ncc(Cc3ccccc3)[nH]2)CO1)C(c1ccccc1)c1ccccc1 [Example 44, N-(2-{2-[(2R,5R)-5-(5-benzyl-1H-imidazol-2-yl)morpholin-2-yl]ethyl}phenyl)-Nα-(methoxycarbonyl)-β-phenyl-L-phenylalaninamide]	–	0.568
COC(=O)N[C@H](C(=O)Nc1ccccc1CC[C@@H]1CN[C@H](c2nc3c(F)c(F)c(F)cc3[nH]2)CO1)C(c1ccccc1)c1ccccc1 [Example 17, methyl N-[(1S)-1-benzhydryl-2-oxo-2-[[2-[2-[(2R,5R)-5-(4,5,6-trifluoro-1H-benzimidazol-2-yl)morpholin-2-yl]ethyl]phenyl]amino]ethyl]carbamate]	–	0.0747
Cc1cc2nc([C@@H]3CO[C@H](CCc4cc[nH]c(=O)c4NC(=O)[C@@H](N)C(c4ccccc4)c4ccccc4)CN3)[nH]c2cc1C [Example 34, N-(4-{2-[(2R,5R)-5-(5,6-dimethyl-1H-benzimidazol-2-yl)morpholin-2-yl]ethyl}-2-oxo-1,2-dihydropyridin-3-yl)-β-phenyl-L-phenylalaninamide]	–	0.168
N[C@H](C(=O)Nc1cncc(F)c1CC[C@@H]1CN[C@H](c2nc3cc(F)c(F)cc3[nH]2)CO1)C(c1ccc(F)cc1)c1ccc(F)cc1 [Example 93, N-(4-{2-[(2R,5R)-5-(5,6-difluoro-1H-benzimidazol-2-yl)morpholin-2-yl]ethyl}-5-fluoropyridin-3-yl)-4-fluoro-β-(4-fluorophenyl)-L-phenylalaninamide]	–	0.02
O=C(CC(c1ccc(F)cc1)c1ccc(F)cc1)Nc1cccc(F)c1CC[C@@H]1CN[C@H](c2nc3ccccc3[nH]2)CO1 [Example 97, N-(2-{2-[(2R,5R)-5-(1H-benzimidazol-2-yl)morpholin-2-yl]ethyl}-3-fluorophenyl)-3,3-bis(4-fluorophenyl) propanamide]	–	0.04

Reference: patent US9737545B2 (MERCK SHARP & DOHME CORP., priority 2013, dated 2017)
